Experimental data from the supplement of paper PMC11451515.

Assays:
Conditions in all cases: 48 h
P12-Ichikawa [1] = test: AUC of viability dose-response curve (% viability x log10 dose units); higher = less sensitive
Summary of the method: (§1)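 Seeding of medium-adapted leukemia cells was at 500 or 1000 cells/well in 1536-well plates, followed by 48 h at 37°C with library compounds in DMSO at 11 threefold doses from 47 μM to 0.79 nM. CellTiter-Glo One luminescence was normalised per plate to DMSO and cell-free wells and fitted as a four-parameter log-logistic function of log10 dose. Area under the curve was integrated by trapezoidal rule, with curves exceeding full viability scaled and curves failing quality control removed.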

SEM cells [2] = test: as above
Summary of the method: as §1

NOMO1 [3] = test: as above
Summary of the method: as §1

SEM cells [4] = test: cell viability relative to DMSO control; higher = less cytotoxic
Summary of the method: (§2)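 Viability was expressed as a per-plate percentage of DMSO wells, with cell-free wells as background. Leukemia cells (NOMO1 or SEM at 500 cells/well, P12-Ichikawa at 1000 cells/well) were adapted for at least four passages in each medium and seeded in 1536-well plates (5 μl). Library compounds in DMSO were pin-dosed over an 11-point threefold series from 47 μM to 0.79 nM, and CellTiter-Glo One luminescence was read after 48 h at 37°C.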

P12-Ichikawa [5] = test: as above
Summary of the method: as §2

NOMO1 [6] = test: as above
Summary of the method: as §2

CN(C)Cc1c(C(=O)NCCOc2ccc(C(=O)NO)cc2)oc2ccccc12
AUC of viability dose-response curve
Conditions	NOMO1 [3]	P12-Ichikawa [1]	SEM cells [2]
HPLM + 10% dialyzed FBS	366	347	324
RPMI 5 mM glucose + 10% FBS	372	345	326
RPMI 5 mM glucose + 10% dialyzed FBS	375	357	332

O=C(N[C@@H](c1ccccc1)[C@@H]1CCCCN1)c1cccc(C(F)(F)F)c1Cl
AUC of viability dose-response curve
Conditions	NOMO1 [3]	P12-Ichikawa [1]	SEM cells [2]
HPLM + 10% dialyzed FBS	444	465	461
RPMI 5 mM glucose + 10% FBS	462	465	450
RPMI 5 mM glucose + 10% dialyzed FBS	408	464	407

C[C@]1(CO)CN(c2cc(C(=O)Nc3ccc4c(c3)-c3c(c(C(N)=O)nn3-c3ccc(F)cc3)CC4)c(Cl)cn2)C[C@@]1(C)CO
AUC of viability dose-response curve
Conditions	NOMO1 [3]	P12-Ichikawa [1]	SEM cells [2]
HPLM + 10% dialyzed FBS	446	418	421
RPMI 5 mM glucose + 10% FBS	457	423	317
RPMI 5 mM glucose + 10% dialyzed FBS	445	422	422

CC(C)OC(=O)C(C)(C)Oc1ccc(C(=O)c2ccc(Cl)cc2)cc1
AUC of viability dose-response curve
Conditions	NOMO1 [3]	P12-Ichikawa [1]	SEM cells [2]
HPLM + 10% dialyzed FBS	469	447	446
RPMI 5 mM glucose + 10% FBS	459	446	423
RPMI 5 mM glucose + 10% dialyzed FBS	466	464	442

CN1C(=O)C(=C\C2=C1N=C(NC3=CC=CC(=C3)C(O)=O)N=C2)/C4=C(Cl)C=CC=C4Cl
cell viability [%], SEM cells [4]
Conditions	HPLM + 10% dialyzed FBS	RPMI 5 mM glucose + 10% FBS	RPMI 5 mM glucose + 10% dialyzed FBS
0.000781 µM	106	103	106
0.00234 µM	114	124	118
0.00702 µM	108	132	136
0.0211 µM	112	114	130
0.0632 µM	110	125	121
0.19 µM	116	123	115
0.569 µM	107	90.9	100
1.71 µM	110	101	116
5.12 µM	104	84.2	97
15.4 µM	67.4	65.6	73.1
46.1 µM	31.9	25	37.8

AUC of viability dose-response curve
Conditions	NOMO1 [3]	P12-Ichikawa [1]	SEM cells [2]
HPLM + 10% dialyzed FBS	465	468	439
RPMI 5 mM glucose + 10% FBS	467	465	405
RPMI 5 mM glucose + 10% dialyzed FBS	461	463	426

Cl.Cl.Clc1ccc(Nc2nnc(Cc3ccncc3)c3ccccc23)cc1
AUC of viability dose-response curve
Conditions	NOMO1 [3]	P12-Ichikawa [1]	SEM cells [2]
HPLM + 10% dialyzed FBS	448	442	449
RPMI 5 mM glucose + 10% FBS	469	472	446
RPMI 5 mM glucose + 10% dialyzed FBS	460	446	357

COc1ccc(C(=O)N2CCCC2=O)cc1
AUC of viability dose-response curve
Conditions	NOMO1 [3]	P12-Ichikawa [1]	SEM cells [2]
HPLM + 10% dialyzed FBS	447	447	449
RPMI 5 mM glucose + 10% FBS	456	456	422
RPMI 5 mM glucose + 10% dialyzed FBS	467	439	461

O=C(CCCCCCNC(=O)c1cnc(N(c2ccccc2)c2ccccc2)nc1)NO
AUC of viability dose-response curve
Conditions	NOMO1 [3]	P12-Ichikawa [1]	SEM cells [2]
HPLM + 10% dialyzed FBS	417	393	399
RPMI 5 mM glucose + 10% FBS	422	386	390
RPMI 5 mM glucose + 10% dialyzed FBS	426	382	392

CC1=CC=C2N=C(NC(=O)CS\C3=N\C4=C(\SCC4)C(=O)N3C5=CC=CC=C5)SC2=C1
AUC of viability dose-response curve
Conditions	HPLM + 10% dialyzed FBS	RPMI 5 mM glucose + 10% FBS	RPMI 5 mM glucose + 10% dialyzed FBS
P12-Ichikawa [1]	444	430	435
SEM cells [2]	424	421	446

COc1ccc2cc3[n+](cc2c1OC)CCc1cc2c(cc1-3)OCO2
AUC of viability dose-response curve
Conditions	NOMO1 [3]	P12-Ichikawa [1]	SEM cells [2]
HPLM + 10% dialyzed FBS	431	429	445
RPMI 5 mM glucose + 10% FBS	441	390	437
RPMI 5 mM glucose + 10% dialyzed FBS	442	411	428

O=C(/C=C/c1ccc(CN(CCO)CCc2c[nH]c3ccccc23)cc1)NO
AUC of viability dose-response curve
Conditions	NOMO1 [3]	P12-Ichikawa [1]	SEM cells [2]
HPLM + 10% dialyzed FBS	296	275	262
RPMI 5 mM glucose + 10% FBS	295	271	261
RPMI 5 mM glucose + 10% dialyzed FBS	303	277	269

Cc1nc(NC(=O)N2CCC[C@H]2C(N)=O)sc1-c1csc(C(C)(C)C)n1
AUC of viability dose-response curve
Conditions	NOMO1 [3]	P12-Ichikawa [1]	SEM cells [2]
HPLM + 10% dialyzed FBS	323	331	309
RPMI 5 mM glucose + 10% FBS	346	334	302
RPMI 5 mM glucose + 10% dialyzed FBS	335	350	312

C=C1C(=O)[C@@]23C(CC[C@@H]1[C@H]2O)[C@@]12CO[C@]3(O)[C@@H](O)[C@@H]1C(C)(C)CC[C@@H]2O (stereo partly specified)
cell viability [%]
Conditions	NOMO1 [6]	P12-Ichikawa [5]	SEM cells [4]
HPLM + 10% dialyzed FBS, 0.000781 µM	119	108	102
HPLM + 10% dialyzed FBS, 0.00234 µM	125	119	96.9
HPLM + 10% dialyzed FBS, 0.00702 µM	124	120	109
HPLM + 10% dialyzed FBS, 0.0211 µM	127	123	113
HPLM + 10% dialyzed FBS, 0.0632 µM	121	122	119
HPLM + 10% dialyzed FBS, 0.19 µM	117	115	103
HPLM + 10% dialyzed FBS, 0.569 µM	125	113	98.5
HPLM + 10% dialyzed FBS, 1.71 µM	147	112	103
HPLM + 10% dialyzed FBS, 5.12 µM	111	89.1	70
HPLM + 10% dialyzed FBS, 15.4 µM	82	44.7	20.5
HPLM + 10% dialyzed FBS, 46.1 µM	10.6	3.48	3.53
RPMI 5 mM glucose + 10% FBS, 0.000781 µM	118	116	106
RPMI 5 mM glucose + 10% FBS, 0.00234 µM	122	116	86.9
RPMI 5 mM glucose + 10% FBS, 0.00702 µM	115	119	107
RPMI 5 mM glucose + 10% FBS, 0.0211 µM	111	119	101
RPMI 5 mM glucose + 10% FBS, 0.0632 µM	135	132	104
RPMI 5 mM glucose + 10% FBS, 0.19 µM	130	118	102
RPMI 5 mM glucose + 10% FBS, 0.569 µM	133	113	86.7
RPMI 5 mM glucose + 10% FBS, 1.71 µM	137	95.5	67.7
RPMI 5 mM glucose + 10% FBS, 5.12 µM	129	85.7	37
RPMI 5 mM glucose + 10% FBS, 15.4 µM	98.4	16.6	4.45
RPMI 5 mM glucose + 10% FBS, 46.1 µM	8.83	3.61	2.3
RPMI 5 mM glucose + 10% dialyzed FBS, 0.000781 µM	120	116	105
RPMI 5 mM glucose + 10% dialyzed FBS, 0.00234 µM	123	117	7.74
RPMI 5 mM glucose + 10% dialyzed FBS, 0.00702 µM	127	126	99.2
RPMI 5 mM glucose + 10% dialyzed FBS, 0.0211 µM	122	123	109
RPMI 5 mM glucose + 10% dialyzed FBS, 0.0632 µM	121	125	113
RPMI 5 mM glucose + 10% dialyzed FBS, 0.19 µM	127	124	107
RPMI 5 mM glucose + 10% dialyzed FBS, 0.569 µM	143	111	92
RPMI 5 mM glucose + 10% dialyzed FBS, 1.71 µM	138	105	97.3
RPMI 5 mM glucose + 10% dialyzed FBS, 5.12 µM	124	75.6	49.3
RPMI 5 mM glucose + 10% dialyzed FBS, 15.4 µM	114	21.9	9.6
RPMI 5 mM glucose + 10% dialyzed FBS, 46.1 µM	14	3.49	2.85

AUC of viability dose-response curve
Conditions	HPLM + 10% dialyzed FBS	RPMI 5 mM glucose + 10% FBS	RPMI 5 mM glucose + 10% dialyzed FBS
NOMO1 [3]	435	444	451
P12-Ichikawa [1]	409	394	389

C[C@H](NCc1ccc2c(c1)nc(NC(=O)c1ccc(-c3cn[nH]c3)s1)n2CCc1ccccc1)C(C)(C)C
AUC of viability dose-response curve
Conditions	NOMO1 [3]	P12-Ichikawa [1]	SEM cells [2]
HPLM + 10% dialyzed FBS	373	410	248
RPMI 5 mM glucose + 10% FBS	404	403	242
RPMI 5 mM glucose + 10% dialyzed FBS	396	412	224

Cn1cc(-c2ccc3nnc(Sc4ccc5ncccc5c4)n3n2)cn1
AUC of viability dose-response curve
Conditions	NOMO1 [3]	P12-Ichikawa [1]	SEM cells [2]
HPLM + 10% dialyzed FBS	463	460	457
RPMI 5 mM glucose + 10% FBS	449	448	475
RPMI 5 mM glucose + 10% dialyzed FBS	455	459	472

C=C1/C(=C/C=C2\CCCC3(C)[C@@H]([C@H](C)/C=C/C=C/C(O)(CC)CC)CC[C@@H]23)C[C@@H](O)C[C@@H]1O (stereo partly specified)
AUC of viability dose-response curve
Conditions	NOMO1 [3]	P12-Ichikawa [1]	SEM cells [2]
HPLM + 10% dialyzed FBS	437	463	463
RPMI 5 mM glucose + 10% FBS	422	451	460
RPMI 5 mM glucose + 10% dialyzed FBS	445	455	448

COc1ccc(COc2cc3oc(=O)c4cc(C(C)O)ccc4c3cc2OC)cc1 (stereo unspecified)
AUC of viability dose-response curve
Conditions	NOMO1 [3]	P12-Ichikawa [1]	SEM cells [2]
HPLM + 10% dialyzed FBS	446	457	451
RPMI 5 mM glucose + 10% FBS	449	444	450
RPMI 5 mM glucose + 10% dialyzed FBS	455	434	461

C=CCNc1c(O)cc2c(O)c1C[C@@H](C)C[C@H](OC)[C@H](O)[C@@H](C)/C=C(/C)[C@H](OC(N)=O)[C@@H](OC)/C=C\C=C(\C)C(=O)N2
AUC of viability dose-response curve
Conditions	NOMO1 [3]	P12-Ichikawa [1]	SEM cells [2]
HPLM + 10% dialyzed FBS	419	428	336
RPMI 5 mM glucose + 10% FBS	411	398	324
RPMI 5 mM glucose + 10% dialyzed FBS	401	410	305

CC[C@@H]1C(=O)N(C)c2cnc(Nc3ccc(C(=O)NC4CCC(N5CCN(CC6CC6)CC5)CC4)cc3OC)nc2N1C(C)C (stereo partly specified)
AUC of viability dose-response curve
Conditions	NOMO1 [3]	P12-Ichikawa [1]	SEM cells [2]
HPLM + 10% dialyzed FBS	276	201	199
RPMI 5 mM glucose + 10% FBS	259	225	227
RPMI 5 mM glucose + 10% dialyzed FBS	259	225	221

CC(C)(C)c1nc(-c2cccc(N[S+](=O)([O-])c3c(F)cccc3F)c2F)c(-c2ccnc(N)n2)s1
AUC of viability dose-response curve
Conditions	NOMO1 [3]	P12-Ichikawa [1]	SEM cells [2]
HPLM + 10% dialyzed FBS	423	428	439
RPMI 5 mM glucose + 10% FBS	447	409	430
RPMI 5 mM glucose + 10% dialyzed FBS	434	385	425
